{
  "source": "patent US3984470A",
  "about": "“Amidoxime derivatives and process for preparing the same” (priority 1974, dated 1976)",
  "key": {"[1]": {"test_system": "reserpine-induced ptosis", "experiment": "Reserpine-induced ptosis in the rat", "assay_type": "in vivo, male rats of the CF1 strain", "conditions": "reserpine 5 mg/kg i.p., score scale 0-4, mean to 6th hour vs controls", "procedure": "(§2) The thymoanaleptic properties of the compounds of the invention were determined by means of reserpine-induced ptosis and hypothermia in the rat.\nAn intraperitoneal dose of 5 mg/kg of reserpine was administered to batches of 5 male rats of the CF1 strain weighing an average of 300 g.\nThirty minutes later a dose of the compound to be studied was given by oral route and the inhibitory effect of the reserpine was noted every hour up to the sixth hour. Ptosis was evaluated for each eye in accordance with the following scale:\n4 : eyelids completely closed.\nThe difference between these two averages represents the average decrease of the ptosis in the treated animals as compared to the controls."}, "[2]": {"test_system": "reserpine-induced hypothermia", "experiment": "Reserpine-induced hypothermia in the rat", "assay_type": "in vivo, male rats CF1", "conditions": "reserpine 5 mg/kg i.p., mean to 6th hour vs controls", "procedure": "as §2\nAn intraperitoneal dose of 5 mg/kg of reserpine was administered to batches of 5 male rats CF1 weighing an average of 300 g. Thirty minutes later, the rectal temperature was determined and then a dose of the compound to be tested was given by oral route, except to the control animals. The rectal temperature of all the animals including the controls was taken every hour up to the 6th hour.\nThe difference between these two averages enabled an estimation to be made regarding the antagonistic effect of the compounds of the invention on the hypothermia induced by reserpine."}, "[3]": {"test_system": "toxicity of yohimbine", "experiment": "Potentiation of the toxicity of yohimbine (test of QUINTON)", "assay_type": "in vivo, male mice", "conditions": "for mortality at 50 mg/kg: Mus musculus, 50 mg/kg oral, yohimbine hydrochloride 25 mg/kg i.p., mortality after 24 hours", "experimental": "Yohimbine is a substance which provokes an increase in the serotonine level in the brain or a decrease in norepinephrine according to the author.\nFor this purpose, the test of QUINTON was used which is described in Brit. J. Pharmacol. 21, 51 (1963). […] […] The percentage of mortality was noted after 24 hours.\nTable III hereunder expresses the percentage of potentiation of the toxicity due to yohimbine in comparison with the controls.\nThe percentage in question was determined 24 hours after the administration of yohimbine."}, "[4]": {"test_system": "stereotypies induced by amphetamine", "experiment": "Potentiation of the stereotypies induced by amphetamine", "assay_type": "in vivo, rats", "experimental": "It is commonly admitted that amphetamine induces stereotypies by stimulating the dopaminergic receptors and inhibiting the re-uptake of dopamine into the neuron.\nThe thymoanaleptics potentiate these stereotypies.\nThirty minutes later, a dose of 10 mg/kg of the compound to be tested was given by oral route. Note was taken of the intensity of the stereotypies every 30 minutes for 150 minutes in accordance with the following scale which indicates the behaviour of the animal.\n0 : the rat is motionless and asleep\n1 : the rat is motionless and awake\n3 : the rat stands on its hind paws and sniffs the lid of its cage in a stereotyped manner.\n4 : the rat licks the walls of its cage in a stereotyped manner\n5 : the rat bites the bars of its cage or sniffs the shavings of its litter in a stereotyped manner\n6 : the rat chews the shavings in a stereotyped manner\nThe average of the 5 results obtained for each batch was calculated and compared with the average obtained with the control animals.\nThe difference between these averages represents the mean increase of the steroetypies of the treated animals in comparison with the controls."}, "[5]": {"test_system": "aggressivity of killer rats", "experiment": "Aggressivity of killer rats", "assay_type": "in vivo, male rats", "conditions": "for inhibition in vivo at 20 mg/kg: 20 mg/kg i.p.", "description": "If, under certain conditions, male rats are kept alone in individual cages for several weeks, the become spontaneously aggressive towards any mouse, which they kill as soon as it is placed in the same cage. Mice were introduced one after another into cages containing an isolated rat and a selection was made of the rats which immediately killed three mice. In this way batches of 6 to 8 rats were constituted. The rats were then given the compound to be studied by intraperitoneal route in such a way that each batch received a higher dose than the preceding batch. […] Table V which follows contains the results obtained 30 minutes after administration of the compound to be studied."}, "[6]": {"test_system": "aggressivity of isolated mice", "experiment": "Aggressivity of isolated mice", "assay_type": "in vivo, male mouse", "conditions": "for ED50: Mus musculus, read-out: ED50, inhibition of aggressivity", "experimental": "If a male mouse is kept alone in a cage for 3 weeks to 1 month, it will spontanesouly attack any other animal of the same species which is placed in the same cage. If the other animal has also been isolated under the same conditions a series of fights takes place.\nMice were isolated for the period of time required to render them spontaneously aggressive. Couples were then put together and note was taken of the number of fights which took place over a period of 3 minutes. Each batch was composed of four pairs of mice.\nThe animals of each batch were then treated by intragastric route with the compound to be studied which was administered in such a way that each batch received a higher dose than the preceding batch. […]\nThe results were expressed in the percentage of decrease in the number of fights between the animals after treatment in comparison with the percentage obtained before treatment which represents the percentage of inhibition of aggressivity."}, "[7]": {"test_system": "cholinergic effects provoked by tremorine", "experiment": "Cholinolytic properties: action with respect to tremorine", "assay_type": "in vivo, male mice of the OF1 strain", "conditions": "tremorine 10 mg/kg, difference vs controls", "experimental": "When injected into mice, tremorine and its metabolite, oxotremorine, produce central cholinergic effects, i.e. normal and provoked tremor as well as peripheral cholinergic effects i.e. weeping, sweating diarrhoea and salivation.\nMale mice of the OF1 strain weighing 22 g, were divided into batches of 10. Each batch with the exception of the control animals, received, by oral route, a dose of the compound to be tested.\nThirty minutes later, 10 mg/kg of tremorine were administered to all the batches and thirty minutes after the injection of tremorine note was taken of the cholinergic effects on each animal in accordance with the following scale: […]"}, "[8]": {"test_system": "peripheral noradrenergic processes", "conditions": "intravenous route; cited from earlier work"}, "[9]": {"test_system": "spontaneous motricity", "experiment": "Spontaneous motricity in the mouse", "assay_type": "in vivo", "experimental": "Tests were also performed with a view to determining whether the compounds of the invention modify spontaneous motricity."}, "[10]": {"test_system": "neuromuscular functions", "experiment": "Rotarod test of BOISSIER / neuromuscular functions", "assay_type": "in vivo, mouse"}, "[11]": {"test_system": "contractile reaction of the nictitating membrane", "experiment": "Ganglioplegic activity on the anesthetized cat (nictitating membrane)", "assay_type": "in vivo", "conditions": "intravenous 0.005, 0.1 and 1 mg/kg", "experimental": "The tonus of the nictitating membrane was first noted after which the contractile reaction of the membrane to electric stimulation of the preganglionic fibre of the cervical sympathetic nerve was tested."}, "[12]": {"experiment": "Toxicity, method of KARBER and BEHRENS, mice", "conditions": "mouse, in vivo; for LD50 at 48 h: mice, after 48 hours", "experimental": "(§1) Finally, tests of toxicity were performed with compounds of the invention following the method of KARBER and BEHRENS."}, "[13]": {"experiment": "Toxicity, method of KARBER and BEHRENS, rats", "conditions": "rat, in vivo; for LD50 at 48 h: rats, after 48 hours", "experimental": "as §1"}, "[14]": {"conditions": "Rattus norvegicus, ip, 0.5 h, 30 minutes after administration"}, "[15]": {"conditions": "10 mg/kg oral, amphetamine 10 mg/kg i.p., every 30 min for 150 min"}},
  "note": "Read-outs that look alike come from different tables or passages of the source.",
  "data": [
    {"smiles": "CN(C)CCCN1c2ccccc2CCc2ccccc21", "note": "[imipramine, 5-(3-dimethylaminopropyl)-10,11-dihydro-5H-dibenz [b,f] azepine, reference compound]", "values": [
      {"measurement": "Average decrease of Ptosis", "setting": "[1]; 20 mg/kg oral", "value": 1.6},
      {"measurement": "Average inhibition of hypothermia (positive °C)", "setting": "[2]; 10 mg/kg oral", "value": 0.4, "unit": "°C"},
      {"measurement": "mortality at 50 mg/kg", "setting": "[3]", "value": 50, "unit": "%"},
      {"measurement": "Average increase of the stereotypies", "setting": "[4]; 5 mg/kg, same conditions (intragastric), 150 minutes", "value": 4.4},
      {"measurement": "Average increase of the stereotypies", "setting": "[4]; 20 mg/kg, same conditions (amphetamine 10 mg/kg i.p.)", "value": 6},
      {"measurement": "inhibition in vivo at 20 mg/kg", "setting": "[5]; [14]", "value": 45, "unit": "%"},
      {"measurement": "inhibition of aggressivity", "setting": "[6]; 20 mg/kg", "value": 78, "unit": "%"},
      {"measurement": "dose of imipramine giving the same activity as Compound 1", "setting": "[6]; relative to 0.42 mg/kg of Compound 1, intragastric, 90 minutes", "value": "twenty-times greater"},
      {"measurement": "Central response tremor: Normal", "setting": "[7]; 20 mg/kg oral", "value": -4},
      {"measurement": "Central response tremor: Provoked", "setting": "[7]; 20 mg/kg oral", "value": -0.4},
      {"measurement": "Peripheral cholinergic response: Salivat.", "setting": "[7]; 20 mg/kg oral", "value": 0},
      {"measurement": "Peripheral cholinergic response: Sweating", "setting": "[7]; 20 mg/kg oral", "value": -2},
      {"measurement": "Peripheral cholinergic response: Weeping", "setting": "[7]; 20 mg/kg oral", "value": -0.8},
      {"measurement": "dose potentiating the peripheral effects of exogenous norepinephrine", "setting": "[8]", "value": "≥ 1", "unit": "mg/kg"}
    ]},
    {"smiles": "CC(Oc1cccc2ccccc12)C(N)=NO", "note": "(centres unmarked) [Compound 1, 2-(1-Naphthyloxy)-propionamidoxime]", "values": [
      {"measurement": "Average decrease of Ptosis", "setting": "[1]; 10 mg/kg oral", "value": 1.7},
      {"measurement": "Average inhibition of hypothermia (positive °C)", "setting": "[2]; 10 mg/kg oral", "value": 0.7, "unit": "°C"},
      {"measurement": "Potentiation of the toxicity of yohimbine", "setting": "[3]; 20 mg/kg, same conditions (yohimbine hydrochloride 25 mg/kg i.p.; 24 hours)", "value": 50, "unit": "%"},
      {"measurement": "Average increase of the stereotypies", "setting": "[4]; [15]", "value": 1},
      {"measurement": "inhibition in vivo at 3 mg/kg", "setting": "[5]; Rattus norvegicus, ip, 0.5 h, 3 mg/kg i.p., 30 minutes after administration", "value": 100, "unit": "%"},
      {"measurement": "antiaggressive properties", "setting": "[5]; conclusion from Table V", "value": "powerful antiaggressive properties"},
      {"measurement": "ED50", "setting": "[6]; po, 1.5 h, intragastric route, 90 minutes after administration", "value": 0.42, "unit": "mg/kg"},
      {"measurement": "ED50", "setting": "[6]; oral route", "value": 0.63, "unit": "mg/kg"},
      {"measurement": "Central response tremor: Normal", "setting": "[7]; 5 mg/kg oral", "value": 0},
      {"measurement": "Central response tremor: Provoked", "setting": "[7]; 5 mg/kg oral", "value": 0},
      {"measurement": "Peripheral cholinergic response: Salivat.", "setting": "[7]; 5 mg/kg oral", "value": 0},
      {"measurement": "Peripheral cholinergic response: Sweating", "setting": "[7]; 5 mg/kg oral", "value": 0},
      {"measurement": "Peripheral cholinergic response: Weeping", "setting": "[7]; 5 mg/kg oral", "value": 0},
      {"measurement": "effect on curiosity of the animal", "setting": "[9]; 3 mg/kg intragastric, mouse", "value": "without, however modifying the curiosity of the animal"},
      {"measurement": "reduction of spontaneous motricity", "setting": "[9]; 3 mg/kg intragastric, mouse, 30 minutes after administration", "value": 50, "unit": "%"},
      {"measurement": "sedation at doses active against aggressivity", "setting": "[9]; conclusion from ratio of doses", "value": "not sedative at the doses which are active against aggressivity"},
      {"measurement": "neurotoxic dose 50 (NTD 50) relative to ED50 (isolated mouse)", "setting": "[10]; 30 minutes after oral administration, mouse", "value": "sufficiently far removed from the ED50"},
      {"measurement": "intensity of the contractions of the nictitating membrane (ganglioplegic effect)", "setting": "[11]", "value": "did not modify the intensity of the contractions of the membrane"},
      {"measurement": "LD50 at 24 h", "setting": "[12]; po", "value": 380, "unit": "mg/kg"},
      {"measurement": "LD50 at 24 h", "setting": "[13]; ip", "value": 50, "unit": "mg/kg"},
      {"measurement": "LD50 at 24 h", "setting": "[13]; po", "value": 108, "unit": "mg/kg"}
    ]},
    {"smiles": "CC(Oc1cccc2ccoc12)C(N)=NO", "note": "(centres unmarked) [Compound 2, 2-(7-Benzofuryloxy)-propionamidoxime]", "values": [
      {"measurement": "Average decrease of Ptosis", "setting": "[1]; 10 mg/kg oral", "value": 2.4},
      {"measurement": "Average inhibition of hypothermia (positive °C)", "setting": "[2]; 100 mg/kg oral", "value": 0.8, "unit": "°C"},
      {"measurement": "mortality at 50 mg/kg", "setting": "[3]", "value": 50, "unit": "%"},
      {"measurement": "Average increase of the stereotypies", "setting": "[4]; 0.05 mg/kg intragastric, 150 minutes", "value": 9},
      {"measurement": "Average increase of the stereotypies", "setting": "[4]; [15]", "value": 9},
      {"measurement": "inhibition in vivo at 20 mg/kg", "setting": "[5]; [14]", "value": 50, "unit": "%"},
      {"measurement": "influence on spontaneous motricity", "setting": "[9]; 50 mg/kg intragastric, mouse", "value": "no influence on the spontaneous motricity"},
      {"measurement": "damage to the neuromuscular functions", "setting": "[10]; up to 40 mg/kg oral, for 3 hours after administration", "value": "did not cause any damage to the neuromuscular functions up to 40 mg/kg"},
      {"measurement": "LD50 at 48 h", "setting": "[12]; ip, intraperitoneal", "value": 68, "unit": "mg/kg"},
      {"measurement": "LD50 at 48 h", "setting": "[12]; oral", "value": 170, "unit": "mg/kg"},
      {"measurement": "LD50 at 48 h", "setting": "[13]; ip, intraperitoneal", "value": 62.5, "unit": "mg/kg"},
      {"measurement": "LD50 at 48 h", "setting": "[13]; oral", "value": 440, "unit": "mg/kg"}
    ]}
  ]
}
